From US6531140B2, “Anti-irritant compositions containing a cyclic nucleotide” (E-L Management, priority 1999, dated 2003)

Tests used:
[1] = test system: skin irritation caused by Balsam of Peru; assay: Balsam of Peru skin irritation test on ventral forearms of panelists (skin redness, Minolta Chromameter); type: in vivo, human; settings: topical; for Percent Reduction in the onset of irritation: Example 2, before Balsam of Peru
Source text: Eight female volunteer panelists between the ages of 21 and 55 having a history of skin sensitivity to Balsam of Peru are chosen for a study. […] The panelists have a history of skin reactivity to Balsam of Peru which manifests itself in the form of an immediate urticaria reaction. The test sites on the ventral forearms of the panelists are devoid of warts, nevi, moles, sunburn, suntan, scars and active dermal lesions. Pregnant or lactating volunteers are excluded. […] The composition is given time, about 20 minutes, to absorb into the skin on the forearm. Next, an irritant, Balsam of Peru, 8.00 percent in petrolatum, is applied to the test area of the skin and when redness appears within 30 to 40 minutes after application, Balsam of Peru is wiped off with a wet towel. Skin redness is measured with the Minolta Chromameter. Skin irritation is measured in terms of an increase in skin redness measured using a Minolta Chromameter and compared with a negative and a positive control. The positive control is the color of the skin treated solely with Balsam of Peru, and the negative control is the color of the skin treated with a cola […] solution in 10% hydroalcohol (1:1).

[2] = test system: cAMP-PDE; settings: in vitro; cited from earlier work
[3] = test system: cGMP-PDE; settings: in vitro; cited from earlier work
[4] = test system: inflammatory parameters in atopic dermatitis; settings: in vivo; cited from earlier work

| Structure (SMILES) | Percent Reduction in the onset of irritation ([1]; 1% concentration) [%] | further results |
| --- | --- | --- |
| Nc1ncnc2c1ncn2C1CC2OP(=O)(O)OCC2O1 (centres unmarked) [2′-deoxy cAMP, 2′-deoxy adenosine 3 ′5′ cyclic monophosphate] | – | reduction in the onset of irritation ([1]; Example 1, 0.5 percent in magnesium buffer, applied about 20 minutes before 8.00 percent Balsam of Peru in petrolatum, eight female panelists): 74%; Percent Reduction in the onset of irritation ([1]; 0.5% concentration): 71%; inhibition of cAMP-PDE [2]: specific and potent in vitro inhibitors |
| Nc1nc2c(ncn2[C@H]2C[C@@H]3OP(=O)(O)OC[C@H]3O2)c(=O)[nH]1 [2′-deoxy cGMP] | – | inhibition of cGMP-PDE [3]: specific and potent in vitro inhibitors |
| COc1ccc(C2CNC(=O)NC2)cc1O[C@H]1C[C@@H]2CC[C@H]1C2 [CP80,633] | – | reduction of inflammatory parameters [4]: significant reduction of inflammatory parameters |
| Cn1c(=O)c2c(ncn2C)n(C)c1=O [Caffeine, caffeine] | 45 | – |
| CC(C)Cn1c(=O)n(C)c(=O)c2[nH]cnc21 [IBMX, 3-isobutyl 1-methyl xanthine] | 66 | – |
| CC(=O)CCCCn1c(=O)c2c(ncn2C)n(C)c1=O [Pentoxifylline, pentoxifylline] | 50 | – |
| CCCCOc1cc(CC2CNC(=O)N2)ccc1OC (centres unmarked) [Ro-12-1724] | 57 | – |
| COc1ccc(C2CNC(=O)C2)cc1OC1CCCC1 (centres unmarked) [Rolipram] | 69 | – |
| O=c1[nH]cnc2c1ncn2[C@@H]1O[C@@H]2COP(=O)(O)O[C@H]2[C@H]1O [cIMP, cyclic IMP] | 42 | – |
